Assay results as given in patent US9387209B2, “Histone deacetylases (HDACs) inhibitors” (ANNJI PHARMACEUTICAL CO., LTD., priority 2012, dated 2016).

Key:
[1] = biological target: T1, human histone deacetylases (HDAC) 8 (Homo sapiens, UniProt Q9BY41); test: HDAC enzymatic assay, HDAC8; format: biochemical; details: HDAC8; read-out: IC50 HDAC8 (grading)
T1 sequence (Q9BY41 1-377): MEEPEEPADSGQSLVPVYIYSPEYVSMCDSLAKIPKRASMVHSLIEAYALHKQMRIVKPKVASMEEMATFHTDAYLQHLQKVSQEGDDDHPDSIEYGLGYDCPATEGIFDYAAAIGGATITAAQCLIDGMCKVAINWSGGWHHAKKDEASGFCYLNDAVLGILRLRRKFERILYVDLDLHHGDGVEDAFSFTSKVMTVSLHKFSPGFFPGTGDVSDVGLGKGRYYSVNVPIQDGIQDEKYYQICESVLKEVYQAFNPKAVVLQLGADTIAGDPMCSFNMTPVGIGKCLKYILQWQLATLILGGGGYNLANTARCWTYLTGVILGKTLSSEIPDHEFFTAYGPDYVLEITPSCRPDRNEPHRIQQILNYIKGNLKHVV

[2] = biological target: human histone deacetylases (HDAC) 1 (Homo sapiens, UniProt Q13547); test: HDAC enzymatic assay, HDAC1; format: biochemical; details: read-out: IC50 HDAC1 (grading)
Sequence of human histone deacetylases (HDAC) 1 (Q13547 whole entry): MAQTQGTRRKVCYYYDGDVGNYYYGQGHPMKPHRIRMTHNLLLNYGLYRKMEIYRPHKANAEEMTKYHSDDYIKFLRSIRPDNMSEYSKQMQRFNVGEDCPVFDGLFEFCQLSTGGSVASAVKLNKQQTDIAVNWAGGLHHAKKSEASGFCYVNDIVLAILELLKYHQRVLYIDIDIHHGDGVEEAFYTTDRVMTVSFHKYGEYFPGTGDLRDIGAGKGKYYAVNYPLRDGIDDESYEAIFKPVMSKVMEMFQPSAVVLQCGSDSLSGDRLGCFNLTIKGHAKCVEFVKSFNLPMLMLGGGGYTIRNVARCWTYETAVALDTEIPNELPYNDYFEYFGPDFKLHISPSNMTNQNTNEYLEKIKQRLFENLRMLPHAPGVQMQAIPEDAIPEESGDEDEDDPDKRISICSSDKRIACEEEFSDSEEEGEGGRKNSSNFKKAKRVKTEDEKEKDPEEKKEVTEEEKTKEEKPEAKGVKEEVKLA

[3] = biological target: T2, zinc-mediated β-amyloid aggregation (Homo sapiens, UniProt P05067); test: Anti-amyloid aggregation assay, CR (Congo red); format: biochemical; details: detected by CR
T2 sequence (P05067 672-711 limits assumed): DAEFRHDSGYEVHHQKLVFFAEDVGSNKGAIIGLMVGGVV
Experimental: (§1) Anti-Amyloid Aggregation Assay.
(§2) The effects of compounds on inhibition of β-amyloid aggregation were assayed. The levels of β-amyloid aggregates were determined by thioflavin S, BCA or CR assays (Tables 1). Thioflavin S, and Congo red are for in vitro staining of aggregated β-amyloid. Bicinchoninic acid (BCA) assay determines the total protein level or concentration.

[4] = biological target: T2, zinc-mediated β-amyloid aggregation; test: Anti-amyloid aggregation assay, BCA; format: biochemical; details: detected by BCA
Experimental: as §1, §2

[5] = biological target: T3, human histone deacetylases (HDAC) 6 (Homo sapiens, UniProt Q9UBN7); test: HDAC enzymatic assay, HDAC6; format: biochemical; details: for IC50: HDAC6, read-out: IC50 HDAC6 (grading); for selective inhibitions on HDAC6: HDAC6 versus other HDACs
T3 sequence (Q9UBN7 1-1215): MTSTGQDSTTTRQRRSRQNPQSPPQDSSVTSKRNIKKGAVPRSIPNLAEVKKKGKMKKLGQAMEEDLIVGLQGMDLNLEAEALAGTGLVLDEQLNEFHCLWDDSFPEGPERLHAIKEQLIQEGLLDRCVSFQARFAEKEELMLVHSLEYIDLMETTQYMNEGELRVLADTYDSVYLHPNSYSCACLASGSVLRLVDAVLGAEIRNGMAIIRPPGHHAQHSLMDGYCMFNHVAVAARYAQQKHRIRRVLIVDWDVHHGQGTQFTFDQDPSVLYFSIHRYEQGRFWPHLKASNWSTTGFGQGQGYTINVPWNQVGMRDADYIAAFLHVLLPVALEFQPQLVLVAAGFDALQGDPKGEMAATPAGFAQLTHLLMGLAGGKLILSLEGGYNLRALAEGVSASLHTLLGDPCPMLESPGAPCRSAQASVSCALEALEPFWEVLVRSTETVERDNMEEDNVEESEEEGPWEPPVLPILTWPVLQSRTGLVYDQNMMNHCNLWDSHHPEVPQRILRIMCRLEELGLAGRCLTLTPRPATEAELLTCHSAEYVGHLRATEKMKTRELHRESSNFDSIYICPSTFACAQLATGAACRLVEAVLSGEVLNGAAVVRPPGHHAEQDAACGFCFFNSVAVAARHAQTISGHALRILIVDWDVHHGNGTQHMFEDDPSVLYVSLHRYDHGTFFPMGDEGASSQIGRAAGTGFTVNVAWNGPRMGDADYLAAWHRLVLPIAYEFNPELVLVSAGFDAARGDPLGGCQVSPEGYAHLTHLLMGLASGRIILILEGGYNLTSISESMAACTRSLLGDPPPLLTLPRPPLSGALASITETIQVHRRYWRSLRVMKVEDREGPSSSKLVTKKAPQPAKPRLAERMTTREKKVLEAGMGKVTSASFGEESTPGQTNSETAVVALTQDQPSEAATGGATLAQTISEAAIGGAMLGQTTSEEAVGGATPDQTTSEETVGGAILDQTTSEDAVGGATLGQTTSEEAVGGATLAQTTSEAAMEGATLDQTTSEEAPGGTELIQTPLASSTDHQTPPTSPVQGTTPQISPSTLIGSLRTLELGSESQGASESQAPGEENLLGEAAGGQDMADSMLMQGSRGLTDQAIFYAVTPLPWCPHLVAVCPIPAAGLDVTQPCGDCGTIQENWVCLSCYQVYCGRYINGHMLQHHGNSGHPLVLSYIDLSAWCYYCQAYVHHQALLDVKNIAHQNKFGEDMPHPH

PC 12 cells [6] = test: Neurite synaptic uptake activity (FM1-43), PC 12; format: cell-based; details: Rattus norvegicus, NGF positive control taken as 100%, read-out: uptake of dye FM1-43 EC50
Experimental: (§3) Neurite Synaptic Uptake Activity Analysis.
(§4) The effects of compounds on the neuronal synapse uptake of fluorescent indicator FM1-43 were assayed. The uptake of the dye indicated the synaptic function of the neurites. PC 12 and SH-SY5Y cells were used. Cells in experimental groups were treated with a test compound and FM1-43; Cells in positive control were treated with NGF and FM1-43; Cells in negative control were treated with a vehicle and FM1-43. The fluorescence in the positive control were taken as 100%.

SH-SY5Y cells [7] = test: Neurite synaptic uptake activity (FM1-43), SH-SY5Y; format: cell-based; details: Homo sapiens, NGF positive control taken as 100%, read-out: uptake of dye FM1-43 EC50
Experimental: as §3, §4

PC 12 cells [8] = test: Neurite outgrowth assay, PC 12; format: cell-based; details: Rattus norvegicus
[9] = biological target: T2, zinc-mediated β-amyloid aggregation; test: Anti-amyloid aggregation assay, thioflavin S; format: biochemical; details: detected by thioflavin S
Experimental: as §1, §2

SH-SY5Y cells [10] = test: Neurite outgrowth assay, SH-SY5Y; format: cell-based; details: Homo sapiens
[11] = test system: hippocampus-lesioned mice; test: Rotarod test in Alzheimer disease model; format: in vivo; details: daily i.p. 10 mg/kg for 30 days, compared to vehicle
Description: To test the effect of the compound in improving the learning ability of the animals in Alzheimer disease model, β-aggregates-induced hippocampal lesions were used to generate learning-impaired mice.

[12] = MTT or SRB assay for cytotoxicity, HepG2; format: cell-based; details: human, HepG2 cells, read-out: cytotoxicity IC50 (grading) HepG2
Experimental: (§5) MTT or SRB Assays for Cytotoxicities of HDAC Inhibitors.
(§6) These compounds were assayed for cytotoxicities to the following cells: A549 cells (adenocarcinomic human alveolar basal epithelial cells), HCT-116 cells (human colon carcinoma cells). PANC-1 cells (human pancreatic carcinoma, epithelial-like cell line) and HepG2 cells (human liver hepatocellular carcinoma cell line), neuronal cells PC12 (rat pheochromocytoma cell line) and SH-SY5Y (human neuroblastoma cell line). MTT (3-[4,5-dimethylthiazol-2-yl]2,5-diphenyl-tetrazolium bromide) reduction was collaborated by using trypan blue exclusion assay.

[13] = MTT or SRB assay for cytotoxicity, HCT116; format: cell-based; details: human, HCT-116 cells, read-out: cytotoxicity IC50 (grading) HCT116
Experimental: as §5, §6

[14] = MTT or SRB assay for cytotoxicity, A549; format: cell-based; details: human, A549 cells, read-out: cytotoxicity IC50 (grading) A549
Experimental: as §5, §6

[15] = MTT or SRB assay for cytotoxicity, PANC1; format: cell-based; details: human, PANC-1 cells, read-out: cytotoxicity IC50 (grading) PANC1
Experimental: as §5, §6

SMILES	IC50 [1]	IC50 [2]	IC50 [3]	IC50 [4]	IC50 [5]	EC50 (PC 12 cells [6])	EC50 (SH-SY5Y cells [7])	selective inhibitions on HDAC6 [5]	EC50 (PC 12 cells [8])	IC50 [9]	EC50 (SH-SY5Y cells [10])	learning performance in rotarod test [11]	melting point	IC50 [12]	IC50 [13]	IC50 [14]	IC50 [15]
Cc1nc2cccc(/C=C/C(=O)NO)c2c(=O)n1-c1ccccc1 [Compound 1a, (2E)-3-(3,4-dihydro-2-methyl-4-oxo-3-phenylquinazolin-5-yl)-N-hydroxyacrylamide]	1 to 10 µM	> 10 µM	30.2 µM	10.1 µM	< 0.1 µM	8.15 ± 0.39 µM	14.7 ± 1.58 µM										
Cc1nc2ccc(/C=C/C(=O)NO)cc2c(=O)n1-c1ccccc1 [Compound 1b, (2E)-3-(3,4-dihydro-2-methyl-4-oxo-3-phenylquinazolin-6-yl)-N-hydroxyacrylamide]	0.1 to 1 µM	1 to 10 µM	4.8 µM	10.1 µM	< 0.1 µM			selective inhibitions on HDAC6									
Cc1nc2c(/C=C/C(=O)NO)cccc2c(=O)n1-c1ccccc1 [Compound 1d, (2E)-3-(3,4-dihydro-2-methyl-4-oxo-3-phenylquinazolin-8-yl)-N-hydroxyacrylamide]	0.1 to 1 µM	> 10 µM	14.5 µM	11.7 µM	0.1 to 1 µM	7.81 ± 0.65 µM	8.03 ± 0.53 µM										
Cc1nc2cc(/C=C/C(=O)NO)ccc2c(=O)n1Cc1ccccc1 [Compound 1e, (2E)-3-(3-benzyl-3,4-dihydro-2-methyl-4-oxoquinazolin-7-yl)-N-hydroxyacrylamide]	1 to 10 µM	1 to 10 µM	5.8 µM	10.6 µM	< 0.1 µM	8.21 ± 0.37 µM	8.2 ± 0.92 µM	selective inhibitions on HDAC6	8.21 ± 0.37 µM	18.1 µM	8.2 ± 0.92 µM						
Cc1nc2cc(/C=C/C(=O)NO)ccc2c(=O)n1CCc1ccccc1 [Compound 1f, (2E)-3-(3,4-dihydro-2-methyl-4-oxo-3-phenethylquinazolin-7-yl)-N-hydroxyacrylamide]	1 to 10 µM	1 to 10 µM	43.1 µM	11.7 µM	< 0.1 µM	6.49 ± 0.78 µM	6.77 ± 0.96 µM	selective inhibitions on HDAC6	6.49 ± 0.78 µM	9.5 µM	6.77 ± 0.96 µM	improved learning performance					
Cc1nc2cc(/C=C/C(=O)NO)ccc2c(=O)n1CCc1c[nH]c2ccccc12 [Compound 1g, (2E)-3-(3-(2-(1H-indol-3-yl)ethyl)-3,4-dihydro-2-methyl-4-oxoquinazolin-7-yl)-N-hydroxyacrylamide]	1 to 10 µM	0.1 to 1 µM	15.5 µM	11.1 µM	< 0.1 µM			selective inhibitions on HDAC6		7.4 µM							
O=C(/C=C/c1ccc2c(=O)n(CCc3ccccc3)cnc2c1)NO [Compound 1h, (2E)-3-(3,4-dihydro-4-oxo-3-phenethylquinazolin-7-yl)-N-hydroxyacrylamide]	0.1 to 1 µM	0.1 to 1 µM	14.6 µM	35 µM	< 0.1 µM	14.5 ± 1.47 µM	4.93 ± 1.34 µM	selective inhibitions on HDAC6	14.5 ± 1.47 µM	5.5 µM	4.93 ± 1.34 µM		197 to 199 °C (dec.)				
CCc1nc2cc(/C=C/C(=O)NO)ccc2c(=O)n1CCc1ccccc1 [Compound 1i, (2E)-3-(2-ethyl-3,4-dihydro-4-oxo-3-phenethylquinazolin-7-yl)-N-hydroxyacrylamide]	1 to 10 µM	1 to 10 µM	5.5 µM	3.9 µM	< 0.1 µM	7.21 ± 0.32 µM	0.88 ± 0.45 µM	selective inhibitions on HDAC6	7.21 ± 0.32 µM	6.8 µM	0.88 ± 0.45 µM		209 to 211 °C	1 to 10 µM	≥ 10 µM	≥ 10 µM	≥ 10 µM
Cc1nc2cc(/C=C/C(=O)Nc3ccccc3N)ccc2c(=O)n1CCc1ccccc1 [Compound 6a, (2E)-N-(2-aminophenyl)-3-(3,4-dihydro-2-methyl-4-oxo-3-phenethylquinazolin-7-yl)acrylamide]	> 10 µM	1 to 10 µM	30.9 µM	13.8 µM	> 10 µM	6.59 ± 1.06 µM	8.81 ± 1.04 µM		6.59 ± 1.06 µM	10.7 µM	8.81 ± 1.04 µM		246 to 248 °C (dec.)	0.1 to 1 µM	≥ 10 µM	≥ 10 µM	1 to 10 µM
